Test results reported in patent US10730874B2 (Shire Human Genetic Therapies, Inc., priority 2018, dated 2020).

Target: human activated kallikrein enzyme (plasma kallikrein) (Homo sapiens (Human), UniProt P03952)
Assay: Inhibition of human activated plasma kallikrein, fluorogenic peptide substrate assay, 500 pM enzyme format
Type: biochemical
Details: 500 pM activated kallikrein enzyme, 300 uM Pro-Phe-Arg-7-amido-4-methylcoumarin substrate, 30 min preincubation, 10 min at RT; read-out: Primary Dose Response Assay: Average EC50
Method in brief: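 Buffer 20 mM Tris pH 7.5, EDTA, NaCl, PEG-400, Triton X-100; 300 uM Pro-Phe-Arg-AMC; enzyme–inhibitor preincubation 30 min RT. Format one: 500 pM kallikrein, 10 min RT reaction; format two: 5 pM kallikrein, 18 h RT reaction. Fluorescence read at 460 nm (380 nm excitation).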

Chain of human activated kallikrein enzyme (plasma kallikrein) (P03952 391-638): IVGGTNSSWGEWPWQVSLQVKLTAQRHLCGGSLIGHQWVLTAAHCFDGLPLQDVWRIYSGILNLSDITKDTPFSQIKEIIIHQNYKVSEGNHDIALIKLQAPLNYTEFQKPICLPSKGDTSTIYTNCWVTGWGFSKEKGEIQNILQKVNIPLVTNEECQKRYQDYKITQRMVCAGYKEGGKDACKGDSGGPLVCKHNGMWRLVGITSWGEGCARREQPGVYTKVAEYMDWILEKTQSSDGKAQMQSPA
Chain of human activated kallikrein enzyme (plasma kallikrein) (P03952 20-390 partner): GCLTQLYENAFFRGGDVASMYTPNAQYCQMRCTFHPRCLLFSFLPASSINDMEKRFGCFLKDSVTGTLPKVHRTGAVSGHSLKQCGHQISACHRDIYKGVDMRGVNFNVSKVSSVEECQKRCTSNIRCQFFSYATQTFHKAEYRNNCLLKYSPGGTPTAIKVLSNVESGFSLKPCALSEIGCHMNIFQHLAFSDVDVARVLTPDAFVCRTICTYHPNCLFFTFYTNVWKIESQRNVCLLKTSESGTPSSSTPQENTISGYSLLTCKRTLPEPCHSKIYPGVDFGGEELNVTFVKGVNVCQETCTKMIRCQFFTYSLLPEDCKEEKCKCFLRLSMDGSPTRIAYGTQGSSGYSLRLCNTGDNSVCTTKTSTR

Row | EC50 | SMILES
1 | < 1 nM | O=C(NCc1ncn2ccc(Cl)c(F)c12)c1cn(Cc2cc3cc(C4CC4)cc(N4CCCC4=O)n3n2)nn1 [Example I-262, N-((7-chloro-8-fluoroimidazo[1,5-a]pyridin-1-yl)methyl)-1-((5-cyclopropyl-7-(2-oxopyrrolidin-1-yl)pyrazolo[1,5-a]pyridin-2-yl)methyl)-1H-1,2,3-triazole-4-carboxamide]
2 | < 1 nM | O=C(NCc1ncn2ccc(Cl)c(F)c12)c1cn(Cc2cn3cc(C4CC4)cc(-c4cncs4)c3n2)nn1 [Example I-263, N-((7-chloro-8-fluoroimidazo[1,5-a]pyridin-1-yl)methyl)-1-((6-cyclopropyl-8-(thiazol-5-yl)imidazo[1,2-a]pyridin-2-yl)methyl)-1H-1,2,3-triazole-4-carboxamide]
3 | < 1 nM | O=C(NCc1ncn2ccc(Cl)c(F)c12)c1cn(Cc2cn3cc(C4CC4)cc(N4CCOC(C(=O)O)C4)c3n2)nn1 (centres unmarked) [Example I-264, 4-(2-((4-(((7-chloro-8-fluoroimidazo[1,5-a]pyridin-1-yl)methyl)carbamoyl)-1H-1,2,3-triazol-1-yl)methyl)-6-cyclopropylimidazo[1,2-a]pyridin-8-yl)morpholine-2-carboxylic acid]
4 | < 1 nM | COC(=O)C1CN(c2cc(C3CC3)nn3cc(Cn4cc(C(=O)NCc5ncn6ccc(Cl)c(F)c56)nn4)nc23)C1 [Example I-265a, methyl 1-(2-((4-(((7-chloro-8-fluoroimidazo[1,5-a]pyridin-1-yl)methyl)carbamoyl)-1H-1,2,3-triazol-1-yl)methyl)-6-cyclopropylimidazo[1,2-b]pyridazin-8-yl)azetidine-3-carboxylate]
5 | 1 to 10 nM | CCOC(=O)c1c(Cn2cc(C(=O)NCc3ncn4ccc(Cl)c(F)c34)nn2)cc2ccc(C3CC3)cn12 [Example I-268, ethyl 2-((4-(((7-chloro-8-fluoroimidazo[1,5-a]pyridin-1-yl)methyl)carbamoyl)-1H-1,2,3-triazol-1-yl)methyl)-6-cyclopropylindolizine-3-carboxylate]
6 | 1 to 10 nM | Cc1c(C)n(C)c2ccc(Cn3cc(C(=O)NCc4ncn5ccc(Cl)c(F)c45)nn3)cc12 [Example I-269, N-((7-chloro-8-fluoroimidazo[1,5-a]pyridin-1-yl)methyl)-1-((1,2,3-trimethyl-1H-indol-5-yl)methyl)-1H-1,2,3-triazole-4-carboxamide]
7 | 1 to 10 nM | COC(=O)c1cc(C(=O)NCc2ncn3ccc(Cl)c(F)c23)cn1Cc1cn2cc(C3CC3)ccc2n1 [Example I-270a, methyl 4-(((7-chloro-8-fluoroimidazo[1,5-a]pyridin-1-yl)methyl)carbamoyl)-1-((6-cyclopropylimidazo[1,2-a]pyridin-2-yl)methyl)-1H-pyrrole-2-carboxylate]
8 | 1 to 10 nM | N#Cc1cc(Cn2cc(C(=O)NCc3ncn4ccc(Cl)c(F)c34)nn2)cc2cc(C3CC3)cnc12 [Example I-273, N-((7-chloro-8-fluoroimidazo[1,5-a]pyridin-1-yl)methyl)-1-((8-cyano-3-cyclopropylquinolin-6-yl)methyl)-1H-1,2,3-triazole-4-carboxamide]
9 | 100 to 2000 nM | O=C(NCc1ncn2ccc(Cl)c(F)c12)c1cn(Cc2[nH]c3cc(C4CC4)ccc3c2C(=O)O)nn1 [Example I-274, 2-((4-(((7-chloro-8-fluoroimidazo[1,5-a]pyridin-1-yl)methyl)carbamoyl)-1H-1,2,3-triazol-1-yl)methyl)-6-cyclopropyl-1H-indole-3-carboxylic acid]
10 | 10 to 100 nM | NC(=O)c1cc(Cn2cc(C(=O)NCc3ncn4ccc(Cl)c(F)c34)nn2)cc2cc(C3CC3)cnc12 [Example I-275, 6-((4-(((7-chloro-8-fluoroimidazo[1,5-a]pyridin-1-yl)methyl)carbamoyl)-1H-1,2,3-triazol-1-yl)methyl)-3-cyclopropylquinoline-8-carboxamide]
11 | < 1 nM | O=C(NCc1ncn2ccc(Cl)c(F)c12)c1ccn(Cc2cn3cc(C4CC4)ccc3n2)c1 [Example I-276, N-((7-chloro-8-fluoroimidazo[1,5-a]pyridin-1-yl)methyl)-1-((6-cyclopropylimidazo[1,2-a]pyridin-2-yl)methyl)-1H-pyrrole-3-carboxamide]
12 | 10 to 100 nM | O=C(NCc1ncn2cc(F)c(Cl)cc12)c1cn(Cc2cn3cc(C4CC4)ccc3n2)nn1 [Example I-277, N-((7-chloro-6-fluoroimidazo[1,5-a]pyridin-1-yl)methyl)-1-((6-cyclopropylimidazo[1,2-a]pyridin-2-yl)methyl)-1H-1,2,3-triazole-4-carboxamide]
13 | 100 to 2000 nM | CC(NC(=O)c1cn(C(C)c2cn3cc(C4CC4)ccc3n2)nn1)c1ncn2ccc(Cl)c(F)c12 (centres unmarked) [Example I-278, N-(1-(7-chloro-8-fluoroimidazo[1,5-a]pyridin-1-yl)ethyl)-1-(1-(6-cyclopropylimidazo[1,2-a]pyridin-2-yl)ethyl)-1H-1,2,3-triazole-4-carboxamide]
14 | 100 to 2000 nM | O=C(NCc1ncn2ccc(Cl)c(F)c12)c1cnn(Cc2nc3ccccn3n2)c1 [Example I-282, 1-([1,2,4]triazolo[1,5-a]pyridin-2-ylmethyl)-N-((7-chloro-8-fluoroimidazo[1,5-a]pyridin-1-yl)methyl)-1H-pyrazole-4-carboxamide]
15 | 10 to 100 nM | O=C(NCc1ncn2ccc(Cl)c(F)c12)c1cnn(Cc2cn3ncccc3n2)c1 [Example I-285, N-((7-chloro-8-fluoroimidazo[1,5-a]pyridin-1-yl)methyl)-1-(imidazo[1,2-b]pyridazin-2-ylmethyl)-1H-pyrazole-4-carboxamide]

More lines, now with the values behind:

Row | SMILES | EC50
16 | O=C(NCc1ncn2ccc(Cl)c(F)c12)c1cn(Cc2cn3nc(C4CC4)cc(N4CC(C(=O)O)C4)c3n2)nn1 [Example I-265b, 1-(2-((4-(((7-chloro-8-fluoroimidazo[1,5-a]pyridin-1-yl)methyl)carbamoyl)-1H-1,2,3-triazol-1-yl)methyl)-6-cyclopropylimidazo[1,2-b]pyridazin-8-yl)azetidine-3-carboxylic acid] | < 1 nM
17 | COC(=O)C1CCN(c2cc(C3CC3)nn3cc(Cn4cc(C(=O)NCc5ncn6ccc(Cl)c(F)c56)nn4)nc23)C1 (centres unmarked) [Example I-266, methyl 1-(2-((4-(((7-chloro-8-fluoroimidazo[1,5-a]pyridin-1-yl)methyl)carbamoyl)-1H-1,2,3-triazol-1-yl)methyl)-6-cyclopropylimidazo[1,2-b]pyridazin-8-yl)pyrrolidine-3-carboxylate] | < 1 nM
18 | O=C(NCc1ncn2ccc(Cl)c(F)c12)c1cn(Cc2cn3nc(C4CC4)cc(N4CCC(C(=O)O)C4)c3n2)nn1 (centres unmarked) [Example I-267, 1-(2-((4-(((7-chloro-8-fluoroimidazo[1,5-a]pyridin-1-yl)methyl)carbamoyl)-1H-1,2,3-triazol-1-yl)methyl)-6-cyclopropylimidazo[1,2-b]pyridazin-8-yl)pyrrolidine-3-carboxylic acid] | < 1 nM
19 | O=C(NCc1ncn2ccc(Cl)c(F)c12)c1cc(C(=O)O)n(Cc2cn3cc(C4CC4)ccc3n2)c1 [Example I-270b, 4-(((7-chloro-8-fluoroimidazo[1,5-a]pyridin-1-yl)methyl)carbamoyl)-1-((6-cyclopropylimidazo[1,2-a]pyridin-2-yl)methyl)-1H-pyrrole-2-carboxylic acid] | < 1 nM
20 | O=C(NCc1ncn2ccc(Cl)c(F)c12)c1cn(Cc2cn3cc(C4CC4)ccc3n2)cn1 [Example I-271, N-((7-chloro-8-fluoroimidazo[1,5-a]pyridin-1-yl)methyl)-1-((6-cyclopropylimidazo[1,2-a]pyridin-2-yl)methyl)-1H-imidazole-4-carboxamide] | < 1 nM
21 | COC(=O)c1c(Cn2cc(C(=O)NCc3ncn4ccc(Cl)c(F)c34)nn2)[nH]c2cc(C3CC3)ccc12 [Example I-272, methyl 2-((4-(((7-chloro-8-fluoroimidazo[1,5-a]pyridin-1-yl)methyl)carbamoyl)-1H-1,2,3-triazol-1-yl)methyl)-6-cyclopropyl-1H-indole-3-carboxylate] | < 1 nM
22 | O=C(NCc1ncn2ccc(Cl)c(F)c12)c1cn(Cc2cn3cc(C4CC4)cc(C(O)C4COC4)c3n2)nn1 (centres unmarked) [Example I-279, N-((7-chloro-8-fluoroimidazo[1,5-a]pyridin-1-yl)methyl)-1-((6-cyclopropyl-8-(hydroxy(oxetan-3-yl)methyl)imidazo[1,2-a]pyridin-2-yl)methyl)-1H-1,2,3-triazole-4-carboxamide] | < 1 nM
23 | CC(NC(=O)c1cn(Cc2cn3cc(C4CC4)cc(C(O)C4COC4)c3n2)nn1)c1ncn2ccc(Cl)c(F)c12 (centres unmarked) [Example I-280, N-(1-(7-chloro-8-fluoroimidazo[1,5-a]pyridin-1-yl)ethyl)-1-((6-cyclopropyl-8-(hydroxy(oxetan-3-yl)methyl)imidazo[1,2-a]pyridin-2-yl)methyl)-1H-1,2,3-triazole-4-carboxamide] | 10 to 100 nM
24 | O=C(NCc1ncn2ccc(Cl)c(F)c12)c1cn(Cc2cn3cc(C4CC4)cc(CS(=O)(=O)NCC(F)(F)F)c3n2)nn1 [Example I-281, N-((7-chloro-8-fluoroimidazo[1,5-a]pyridin-1-yl)methyl)-1-((6-cyclopropyl-8-((N-(2,2,2-trifluoroethyl)sulfamoyl)methyl)imidazo[1,2-a]pyridin-2-yl)methyl)-1H-1,2,3-triazole-4-carboxamide] | < 1 nM
25 | O=C(NCc1ncn2ccc(Cl)c(F)c12)c1nnn(Cc2cn3cc(C4CC4)ccc3n2)n1 [Example I-283, N-((7-chloro-8-fluoroimidazo[1,5-a]pyridin-1-yl)methyl)-2-((6-cyclopropylimidazo[1,2-a]pyridin-2-yl)methyl)-2H-tetrazole-5-carboxamide] | < 1 nM
26 | O=C(NCc1ncn2ccc(Cl)c(F)c12)c1cnn(Cc2cn3ccccc3n2)c1 [Example I-284, N-((7-chloro-8-fluoroimidazo[1,5-a]pyridin-1-yl)methyl)-1-(imidazo[1,2-a]pyridin-2-ylmethyl)-1H-pyrazole-4-carboxamide] | 10 to 100 nM
